In this experiment the test system is L1210 leukemia ip in BDF1 mice, survival T/C. The experiment in a line: NCI In Vivo Anticancer Drug Screen. Data for tumor model L1210 Leukemia (intraperitoneal) in B6D2F1 (BDF1) mice. Conditions: endpoint: mean survival time, higher = longer survival. A digest of the protocol:
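Ratio derived from survival: compound-dosed mice over vehicle-dosed mice, all bearing a transplantable tumor.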

Where [1] appears, read: dose: 100.0 mg/kg/injection, schedule: Q04DX002 (ip), vehicle: Klucel (hydroxypropylcellulose) (HPC).
The mark [2] stands for this setting: dose: 400.0 mg/kg/injection, schedule: Q04DX002 (ip), vehicle: Klucel (hydroxypropylcellulose) (HPC).
Setting [3] is: dose: 100.0 mg/kg/injection, schedule: Q01DX009 (ip), vehicle: Klucel (hydroxypropylcellulose) (HPC).
Where [4] appears, read: dose: 100.0 mg/kg/injection, schedule: Q04DX003 (ip), vehicle: Klucel (hydroxypropylcellulose) (HPC).
Where [5] appears, read: dose: 200.0 mg/kg/injection, schedule: Q01DX009 (ip), vehicle: Klucel (hydroxypropylcellulose) (HPC).
Where [6] appears, read: dose: 400.0 mg/kg/injection, schedule: Q01DX009 (ip), vehicle: Klucel (hydroxypropylcellulose) (HPC).
Where [7] appears, read: dose: 400.0 mg/kg/injection, schedule: Q04DX003 (ip), vehicle: Klucel (hydroxypropylcellulose) (HPC).
Setting [8] is: dose: 200.0 mg/kg/injection, schedule: Q04DX002 (ip), vehicle: Klucel (hydroxypropylcellulose) (HPC).

This note sets out measurements from PubChem BioAssay AID248 (DTP/NCI, 2004).

Several values for one entry are separate records, joined by “and”; a condition that tells them apart may be missing. Equal entries are not always repeated. Inconclusive results and toxic doses are left out.

Turning to `CC(=O)OC1CCC2(C)C(CCC3C2CC(OC(C)=O)C2(C)C3CCC2C2(C)SCCS2)C1` (stereo not given), the T/C by setting is: under setting [1], 94 % of control; under setting [2], 87 % of control.

Consider `CC(C)(Cl)CCC1=C(Cl)C(=O)c2ccccc2C1=O`, for which the T/C was 98 % of control (dose: 5.0 mg/kg/injection, schedule: Q01DX001 (ip), vehicle: water) and 98 % of control (dose: 10.0 mg/kg/injection, schedule: Q01DX001 (ip), vehicle: water).

Regarding `Cn1c2ccccc2[n+]2c(N)scc12`, the T/C (dose: 12.5 mg/kg/injection, schedule: Q04DX002 (ip), vehicle: saline) was 101 % of control; the T/C (dose: 25.0 mg/kg/injection, schedule: Q04DX002 (ip), vehicle: saline) is 115 % of control; the T/C (dose: 50.0 mg/kg/injection, schedule: Q04DX002 (ip), vehicle: saline) was 96 % of control and 91 % of control; the T/C (dose: 100.0 mg/kg/injection, schedule: Q04DX002 (ip), vehicle: saline) is 102 % of control.

On to `O=c1[nH][nH]c(=O)c2c1CCCC2`, for which the T/C is, setting by setting: (dose: 50.0 mg/kg/injection, schedule: Q01DX009 (ip), vehicle: saline with Tween-80) 98 % of control; (dose: 100.0 mg/kg/injection, schedule: Q01DX009 (ip), vehicle: saline with Tween-80) 95 % of control; (dose: 200.0 mg/kg/injection, schedule: Q01DX009 (ip), vehicle: saline with Tween-80) 109 % of control.

For `c1ccc(C2OCC3OC(c4ccccc4)OC(C4SCCS4)C3O2)cc1` (stereo not given), the T/C (dose: 100.0 mg/kg/injection, schedule: Q01DX001 (ip), vehicle: gum acacia) is 92 % of control; the T/C (dose: 200.0 mg/kg/injection, schedule: Q01DX001 (ip), vehicle: gum acacia) is 93 % of control; the T/C (dose: 400.0 mg/kg/injection, schedule: Q01DX001 (ip), vehicle: gum acacia) was 93 % of control.

`Oc1ccc(O)c2[nH]c(-c3ccccc3)cc12`: the T/C is, setting by setting: (dose: 6.25 mg/kg/injection, schedule: Q04DX002 (ip), vehicle: saline with Tween-80) 97 % of control; (dose: 12.5 mg/kg/injection, schedule: Q04DX002 (ip), vehicle: saline with Tween-80) 97 % of control.

As to `CCCCS(=O)(=O)Oc1ccc(N)c([N+](=O)[O-])c1`, the T/C is, setting by setting: (dose: 100.0 mg/kg/injection, schedule: Q04DX003 (ip), vehicle: saline with Tween-80) 101 % of control; (dose: 200.0 mg/kg/injection, schedule: Q04DX003 (ip), vehicle: saline with Tween-80) 101 % of control; (dose: 400.0 mg/kg/injection, schedule: Q04DX003 (ip), vehicle: saline with Tween-80) 88 % of control.

For the molecule `CN(C)c1ccc(C=O)c(Oc2ccccc2)c1`, the T/C was 96 % of control under setting [3]; 97 % of control under setting [4]; 110 % of control under setting [5]; 97 % of control (dose: 200.0 mg/kg/injection, schedule: Q04DX003 (ip), vehicle: Klucel (hydroxypropylcellulose) (HPC)); 106 % of control under setting [6]; 94 % of control under setting [7].

In the case of `CC#C[P+](Cc1ccccc1)(c1ccccc1)c1ccccc1`, the T/C by setting is: (dose: 9.5 mg/kg/injection, schedule: Q01DX001 (ip), vehicle: saline) 108 % of control; (dose: 19.0 mg/kg/injection, schedule: Q01DX001 (ip), vehicle: saline) 117 % of control.

For `O=c1[nH]c2c(c(=O)[nH]1)OCN(Cc1ccccc1)C2`, the T/C (dose: 50.0 mg/kg/injection, schedule: Q01DX001 (ip), vehicle: carboxymethylcellulose (CMC)) was 98 % of control; the T/C (dose: 100.0 mg/kg/injection, schedule: Q01DX001 (ip), vehicle: carboxymethylcellulose (CMC)) is 105 % of control; the T/C (dose: 200.0 mg/kg/injection, schedule: Q01DX001 (ip), vehicle: carboxymethylcellulose (CMC)) was 100 % of control; the T/C (dose: 400.0 mg/kg/injection, schedule: Q01DX001 (ip), vehicle: carboxymethylcellulose (CMC)) was 100 % of control.

On to `CN1CCC(C=C2c3ccccc3Sc3ccccc32)C1` (stereo not given), for which the T/C (dose: 8.0 mg/kg/injection, schedule: Q01DX015 (ip), vehicle: carboxymethylcellulose (CMC)) was 110 % of control; the T/C (dose: 16.0 mg/kg/injection, schedule: Q01DX015 (ip), vehicle: carboxymethylcellulose (CMC)) is 102 % of control; the T/C (dose: 32.0 mg/kg/injection, schedule: Q01DX015 (ip), vehicle: carboxymethylcellulose (CMC)) was 96 % of control; the T/C (dose: 64.0 mg/kg/injection, schedule: Q01DX015 (ip), vehicle: carboxymethylcellulose (CMC)) is 98 % of control.

Take `O=C(O)c1ccccc1S(=O)O`: the T/C reads like this: (dose: 50.0 mg/kg/injection, schedule: Q04DX002 (ip), vehicle: other) 119 % of control; (dose: 100.0 mg/kg/injection, schedule: Q04DX002 (ip), vehicle: other) 122 % of control; under setting [8], 89 % of control; (dose: 200.0 mg/kg/injection, schedule: Q04DX002 (ip), vehicle: other) 91 % of control; under setting [2], 103 % of control.

As for `CC(=O)c1cccc(NC(=O)Nc2ccc(CCO)cc2)c1`, the T/C was 95 % of control under setting [3], 95 % of control under setting [5] and 100 % of control under setting [6].

As for `CCCCN(C)N=Nc1c(Cl)cc(Cl)cc1C(N)=O`, the T/C is 106 % of control (dose: 100.0 mg/kg/injection, schedule: Q01DX001 (ip), vehicle: other); 106 % of control under setting [4]; 107 % of control (dose: 200.0 mg/kg/injection, schedule: Q01DX001 (ip), vehicle: other); 95 % of control under setting [5]; 114 % of control (dose: 264.0 mg/kg/injection, schedule: Q01DX001 (ip), vehicle: Klucel (hydroxypropylcellulose) (HPC)); 124 % of control (dose: 400.0 mg/kg/injection, schedule: Q01DX001 (ip), vehicle: Klucel (hydroxypropylcellulose) (HPC)). Besides, the T/C under setting [7] is 181 % of control.

Consider `CN(C)C(=O)NC1CCc2ccc([N+](=O)[O-])cc21` (stereo not given), for which the T/C runs as follows: (dose: 100.0 mg/kg/injection, schedule: Q04DX002 (ip), vehicle: saline with Tween-80) 97 % of control; (dose: 200.0 mg/kg/injection, schedule: Q04DX002 (ip), vehicle: saline with Tween-80) 108 % of control; (dose: 400.0 mg/kg/injection, schedule: Q04DX002 (ip), vehicle: saline with Tween-80) 119 % of control.

For `O=C(O)c1ccccc1C(=O)NCc1ccc(Cl)cc1Cl`, the T/C is, setting by setting: under setting [1], 88 % of control; under setting [8], 100 % of control; under setting [2], 98 % of control.

As to `CC(C)C(CCN1CCCCC1)(CNC1=NCCN1)c1cccc2ccccc12` (stereo not given), the T/C is 103 % of control (dose: 3.12 mg/kg/injection, schedule: Q04DX002 (ip), vehicle: Klucel (hydroxypropylcellulose) (HPC)); 99 % of control (dose: 5.0 mg/kg/injection, schedule: Q01DX009 (ip), vehicle: Klucel (hydroxypropylcellulose) (HPC)); 100 % of control (dose: 6.25 mg/kg/injection, schedule: Q04DX002 (ip), vehicle: Klucel (hydroxypropylcellulose) (HPC)); 102 % of control (dose: 10.0 mg/kg/injection, schedule: Q01DX009 (ip), vehicle: Klucel (hydroxypropylcellulose) (HPC)); 103 % of control (dose: 12.5 mg/kg/injection, schedule: Q04DX002 (ip), vehicle: Klucel (hydroxypropylcellulose) (HPC)); 92 % of control (dose: 12.5 mg/kg/injection, schedule: Q04DX003 (ip), vehicle: Klucel (hydroxypropylcellulose) (HPC)). The T/C (dose: 20.0 mg/kg/injection, schedule: Q01DX009 (ip), vehicle: Klucel (hydroxypropylcellulose) (HPC)) is 89 % of control; the T/C (dose: 25.0 mg/kg/injection, schedule: Q04DX003 (ip), vehicle: Klucel (hydroxypropylcellulose) (HPC)) was 97 % of control; the T/C (dose: 50.0 mg/kg/injection, schedule: Q04DX003 (ip), vehicle: Klucel (hydroxypropylcellulose) (HPC)) is 90 % of control.
